US4820718A, “N-alkyl-(2- or 5-substituted-2-methoxycarbonyl aminoalkyl furanyl)-substituted cyclimmonium salts and use thereof in PAF inhibition” (Sandoz Pharm. Corp., priority 1987, dated 1989)

Assays:
[1] = system: PAF-induced human platelet aggregation; experiment: Platelet Aggregation Inhibition Assay (PAIA test), PAF-induced human platelet aggregation in vitro; assay type: cell-based; settings: human platelet rich plasma
Description: All of the compounds of formula I are useful as platelet activating factor inhibitors as indicated by their ability to inhibit platelet activating factor (PAF)-induced human platelet aggregation in vitro according to the Platelet Aggregation Inhibition Assay test (PAIA test) as follows: Human subjects are kept aspirin free for one week and fasted overnight. Platelet rich plasma (PRP) is prepared by centrifugation (200×g.) of freshly drawn blood anti-coagulated with 0.38% sodium citrate (final concentration). Platelet count is adjusted to 250,000 per μl using platelet poor plasma (PPP) obtained by a second centrifugation (700×g.) of the blood sample. An aliquot (0.38 ml) of the PRP is dispensed into cuvettes and maintained at room temperature (22° C.) until used (but for not more than two hours). […] All aggregations are allowed to proceed for 6 minutes for the addition of the inducing agent. The aggregation response is quantitated by determining the area under the curve (AUC). The AUC calculated for the inducing agent alone is considered to be one hundred percent. The potential percent inhibition of the aggregation response is determined by dividing the AUC generated in the presence of the compound by the AUC of the inducing agent alone, multiplying by 100 and then subtracting from 100.

[2] = molecular target: T1, Human Platelet PAF Receptor (Homo sapiens, UniProt P25105); experiment: Human Platelet PAF Receptor Assay (Test A), inhibition of specific binding of [3H]-PAF to platelets; settings: [3H]-PAF specific binding
T1 construct: 500 μl of the above-described platelets; endogenous in cells; host or cells: washed human platelets from blood of healthy donors
T1 sequence (P25105 whole entry): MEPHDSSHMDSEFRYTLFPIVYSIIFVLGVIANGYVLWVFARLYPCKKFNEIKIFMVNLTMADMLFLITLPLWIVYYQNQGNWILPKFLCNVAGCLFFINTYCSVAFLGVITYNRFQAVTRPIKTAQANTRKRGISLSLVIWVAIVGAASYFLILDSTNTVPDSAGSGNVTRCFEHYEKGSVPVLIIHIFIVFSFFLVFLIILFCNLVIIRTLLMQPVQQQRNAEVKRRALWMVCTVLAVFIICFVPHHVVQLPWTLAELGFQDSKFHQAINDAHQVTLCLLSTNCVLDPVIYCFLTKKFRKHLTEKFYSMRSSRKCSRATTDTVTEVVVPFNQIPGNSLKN
Description: Platelet rich plasma (PRP) is prepared by centrifugation (250×g) of the blood for 20 minutes at room temperature. […] The platelets are resuspended at […] in TT/BSA containing 1.4 mM CaCl2.2H2 O and 0.7 mM MgCl2.6H2 O. All of the tests are conducted in duplicate and each of the test compounds is evaluated at concentrations of 100, 50, 1 and 0.1 μM. For each determination, the following solutions are mixed: 500 μl of the above-described platelets; 10 μl of [^3 H]-PAF (40,000 counts per minute (cpm) to a final concentration of […]); and either 10 μl of the test compound at 50× the desired final concentration, 10 μl of vehicle (total bound), or 10 μl of 1.85×10^-5 M cold PAF (non-specifically bound), […] The supernatants are then aspirated into the same scintillation vials as before and 10 ml, of Scintiverse II (a liquid scintillation cocktail) is added to and mixed therewith. The pellets are resuspended in 500 μl of Scintiverse II and mixed well. […] The amount of specific binding is calculated as the difference in cpm between the total bound [^3 H]-PAF and non-specifically bound [^3 H]-PAF. The percent inhibition of specific binding is determined by dividing the cpm specifically bound in the presence of the test compound by the cpm specifically bound in total, multiplying by 100 and then subtracting from 100. An IC50 (50% inhibitory concentration) value is generated by evaluating the test compound over the full concentration range.

PAF-induced hypotension = PAF-induced hypotension test (Test D); assay type: in vivo, Wistar rat; settings: for decrease in blood pressure: within 10 sec.; for ED50: Rattus norvegicus, iv, Test D, Wistar rats, PAF-induced blood pressure decrease
Description: Male Wistar rats, weighing approximately 300 gm, are anesthetized and their carotid arteries cannulated to enable their diastolic and systolic arterial blood pressure measurements to be recorded. PAF is then administered intravenously at either 100 or 500 ng/kg, and the blood pressure drop (within 10 sec.) and recovery time required to reach the pre-injection blood pressure level are measured. […] In order to measure the effectiveness of a compound for both the inhibition of blood pressure decreases and shortening of the recovery time, the test compound is administered intravenously over a range of between 5 and 7 dosage levels (1 or 2 test animals per dose) and between 1 and 5 minutes prior to the introduction of PAF to generate an ED50.

[3] = system: PAF-mediated broncho-constriction; experiment: PAF-induced Pulmonary Inflation Pressure (PIP) Increase test (Test B); assay type: in vivo, guinea pig; settings: Cavia porcellus, iv, i.a., guinea pigs, PAF 100 ng/kg i.v., maximal PIP
Description: Male guinea pigs, weighing between 300 and 400 gm, are anesthetized, after which time trachea tube, carotid and jugular catheters are inserted. The test animal is then force ventilated employing a small animal Harvard respirator and the resistance to lung inflation (PIP) is measured utilizing a pressure transducer and recorder. The test compound is administered orally at 30 minutes prior to, intravenously (jugular) at 5 minutes prior to, or intraarterially at 1 to 5 minutes prior to the introduction of PAF. The PAF (C18 -Sandoz, Hanover) is dissolved in Tris-Tyrode's bovine serum albumin buffer and administered intravenously (jugular) at 100 ng/kg. Any blood pressure measurements taken are recorded from a transducer attached to the carotid catheter. Two responses are noted in the PIP recordings after the PAF is administered: (1) an immediate response which, in PAF-only treated test animals, averages out to between 70% and 80% more than the baseline PIP values. (This early response is also the greatest response and is, therefore, termed mazimal PIP); and (2) the long term (at least 30 minutes) PIP response which slowly decreases to baseline. A reading at 15 minutes after the administration of PAF is termed the endpoint PIP.

[4] = system: PAF-induced bronchoconstriction; experiment: Decrease in inhibition of bronchoconstriction over time (Test I); assay type: in vivo, guinea pig; settings: i.v., x times the ED50, time still inhibiting 50%
Description: Male guinea pigs, weighing between 300 and 400 gm, are anesthetized, after which time trachea tube, carotid and jugular catheters are inserted. The test animal is then force ventilated employing a small animal Harvard respirator and the resistance to lung inflation (PIP) is measured utilizing a pressure transducer and recorder. The test compound is administered orally at 30 minutes prior to, intravenously (jugular) at 5 minutes prior to, or intraarterially at 1 to 5 minutes prior to the introduction of PAF. The PAF (C18 -Sandoz, Hanover) is dissolved in Tris-Tyrode's bovine serum albumin buffer and administered intravenously (jugular) at 100 ng/kg. Any blood pressure measurements taken are recorded from a transducer attached to the carotid catheter. […] (This early response is also the greatest response and is, therefore, termed mazimal PIP); and (2) the long term (at least 30 minutes) PIP response which slowly decreases to baseline. A reading at 15 minutes after the administration of PAF is termed the endpoint PIP.
Thus, a decrease in inhibition of bronchoconstriction over time (Test I) can be measured by a modification of Test B described above wherein an amount of the test compound which is x times the ED50 for the compound is intravenously administered to the test animals. By observing the time at which the test compound still inhibits 50% of the bronchoconstriction caused by the PAF challenge, the rate of loss of the test compound can be determined employing the following equation: [formula]

[5] = system: PAF-mediated extravasation; experiment: PAF-induced Extravasation test (Test C), hemoconcentration; assay type: in vivo, guinea pig; settings: Cavia porcellus, iv, i.a., guinea pigs, PAF 100 ng/kg i.v., increase in hematocrit
Description: (§1) Male guinea pigs, weighing between 300 and 400 gm, are anesthetized, after which time a femoral catheter is inserted. The test compound is administered intraarterially at one to five minutes prior to the introduction of PAF. The PAF (C18 -Sandoz, Hanover) is dissolved in Tris-Tyrode's bovine serum albumin buffer and administered intravenously (jugular) at 100 ng/kg.
(§2) To determine the hematocrit value, which is employed to index hemoconcentration and is defined as the percent of packed red blood cells in a sample of blood which is centrifuged to separate plasma from the cellular components, blood samples are collected in 50 μl heparinized hematocrit tubes. These samples are taken just prior to the injection of PAF, one minute subsequent to the injection of PAF and every two minutes thereafter until 15 minutes has lapsed subsequent to the injection of PAF. The tubes are then centrifuged and the percent of packed red blood cells (hematocrit) is measured (PAF induces a maximal increase in hematocrit at 5 to 7 minutes subsequent to the injection of PAF). The percent increase in hematocrit over the value prior to the injection of PAF is calculated. The hematocrit values obtained with the test compound are compared to the hemoconcentration values obtained with PAF alone and are expressed as percent inhibition of percent increase in hematocrit. From the values obtained, an ED50 is generated.

[6] = system: PAF-induced hemoconcentration; experiment: Decrease in inhibition of hemoconcentration over time (Test J); assay type: in vivo, guinea pig; settings: i.v., x times the ED50, time still inhibiting 50%
Description: as §1, §2
Similarly, a decrease in inhibition of hemoconcentration over time (Test J) can be measured by a modification of Test C described above wherein an amount of the test compound which is x times the ED50 for the compound is intravenously administered to the test animals. By observing the time at which the test compound still inhibits 50% of the hemoconcentration caused by the PAF challenge, the rate of loss of the test compound can be determined employing the above equation.

| IC50 [1] [nM] | IC50 [2] [nM] | Rate of loss [4] [µg/kg/min] | Rate of loss [6] [µg/kg/min] | Compound | decrease in blood pressure (PAF-induced hypotension; PAF 100 ng/kg i.v.) [%] | recovery time to pre-injection blood pressure level (PAF-induced hypotension; PAF 500 ng/kg i.v.) [min] | decrease in blood pressure (PAF-induced hypotension; PAF 500 ng/kg i.v.) [%] | ED50 [3] [µg/kg] | ED50 [5] [µg/kg] | ED50 (PAF-induced hypotension) [µg/kg] |
| --- | --- | --- | --- | --- | --- | --- | --- | --- | --- | --- |
| 860 | 14 | – | – | CCCCCCCCCCCCCCCCCCOCC1(COC(=O)N(Cc2cccc[n+]2CC)C(C)=O)CCCO1 (stereo not shown) [Example 8, 2-[Acetyl[[tetrahydro-2-[(octadecyloxy)methyl]furan-2-yl]methoxycarbonyl]aminomethyl]-1-ethylpyridinium chloride] | – | – | – | – | – | – |
| – | – | – | – | 1-O-alkyl-2-acetyl-sn-glyceryl-3-phosphoryl-choline [PAF, reference compound] | 30 | 10 | 52 | – | – | – |
| 840 | 16 | – | – | CCCCCCCCCCCCCCCCCCNC(=O)OCC1(COC(=O)N(Cc2cccc[n+]2CC)C(=O)c2ccccc2)CCCO1 (stereo not shown) [Example 7, 2-[Benzoyl[[tetrahydro-2-[[[[(octadecyl)amino]carbonyl]oxy]methyl]furan-2-yl]-methoxycarbonyl]aminomethyl]-1-ethylpyridinium chloride] | – | – | – | – | – | – |
| 2200 | 450 | – | – | CCCCCCCCCCCCCCCCCCNC(=O)OC[C@@]1(C)CC[C@@](C)(COC(=O)NCc2cc(C)cc(C)[n+]2C)O1 (relative stereo) [Example 11, Cis-2-[[[tetrahydro-2,5-dimethyl-5-[[[[(octadecyl)amino]carbonyl]oxy]methyl]furan-2-yl]methoxycarbonyl]aminomethyl]-1,4,6-trimethylpyridinium chloride] | – | – | – | – | – | – |
| 130 | 8 | 0.35 | 1.10 | CCCCCCCCCCCCCCCCCCNC(=O)OCC1(COC(=O)N(CCCCCc2cccc[n+]2CC)C(C)=O)CCCO1.[Cl-] (stereo not shown) [Example 4, 2-[5-[Acetyl[[tetrahydro-2-[[[[(octadecyl)-amino]carbonyl]oxy]methyl]furan-2-yl]methoxycarbonyl]amino]pentyl]-1-ethylpyridinium chloride] | – | – | – | 15 | 17 | – |
| 2000 | 2200 | – | – | CCCCCCCCCCCCCCCCCCNC(=O)OC[C@@]1(C)CC[C@@](C)(COC(=O)N(C)Cc2cccc[n+]2C)O1 (relative stereo) [Example 12, Cis-2-[methyl[[tetrahydro-2,5-dimethyl-5-[[[[(octadecyl)amino]carbonyl]oxy]methyl]furan-2-yl]methoxycarbonyl]aminomethyl]-1-methylpyridinium chloride] | – | – | – | – | – | – |
| 550 | 560 | 30.0 | 10.21 | CCCCCCCCCCCCCCCCCCNC(=O)OC[C@@]1(C)CC[C@@](C)(COC(=O)NCc2cccc[n+]2CC)O1 (relative stereo) [Example 10, Cis-2-[[[tetrahydro-5-[[[[(octadecyl)amino]carbonyl]oxy]methyl]-2,5-dimethyl-furan-2-yl]methoxycarbonyl]aminomethyl]-1-ethylpyridinium chloride] | – | – | – | 150 | 60 | – |
| 40 | 10 | 0.3 | 0.35 | CCCCCCCCCCCCCCCCCCNC(=O)OCC1(COC(=O)N(Cc2cccc[n+]2CC)C(C)=O)CCCO1 (stereo not shown) [Example 1, 2-[Acetyl[[tetrahydro-2-[[[[(octadecyl)-amino]carbonyl]oxy]methyl]furan-2-yl]-methoxycarbonyl]aminomethyl]-1-ethylpyridinium chloride] | – | – | – | 2.5 | 2.8 | 3 |
| 350 | 60 | 0.88 | 0.92 | CCCCCCCCCCCCCCCCCCNC(=O)OC[C@@]1(C)CC[C@@](C)(COC(=O)N(Cc2cccc[n+]2CC)C(C)=O)O1 (relative stereo) [Example 9, Cis-2-[acetyl[[tetrahydro-2,5-dimethyl-5-[[[[(octadecyl)amino]carbonyl]oxy]methyl]furan-2-yl]methoxycarbonyl]aminomethyl]-1-ethylpyridinium chloride] | – | – | – | 20 | 15 | – |
| 500 | 85 | – | – | CCCCCCCCCCCCCCCCCCNC(=O)OCC1(COC(=O)N(Cc2cccc[n+]2CC)C(=O)C(C)(C)C)CCCO1 (stereo not shown) [Example 6, 2-[Trimethylacetyl[[tetrahydro-2-[[[[(octadecyl)amino]carbonyl]oxy]methyl]furan-2-yl]methoxycarbonyl]aminomethyl]-1-ethylpyridinium chloride] | – | – | – | – | – | – |
| 300 | 20 | 0.66 | 0.65 | CCCCCCCCCCCCCCCCCCNC(=O)OCC1(COC(=O)NCCCCCc2cccc[n+]2CC)CCCO1.[Cl-] (stereo not shown) [Example 3, 2-[5-[[[Tetrahydro-2-[[[[(octadecyl)-amino]carbonyl]oxy]methyl]furan-2-yl]methoxycarbonyl]amino]pentyl]-1-ethylpyridinium chloride] | – | – | – | 5 | 8.5 | 27 |
| 48 | 2 | – | – | CCCCCCCCCCCCCCCCCCN(C(C)=O)C(=O)OCC1(COC(=O)N(Cc2cccc[n+]2CC)C(C)=O)CCCO1 (stereo not shown) [Example 5, 2-[Acetyl[[tetrahydro-2-[[[[[acetyl(octadecyl)amino]carbonyl]oxy]methyl]furan-2-yl]methoxycarbonyl]aminomethyl]-1-ethylpyridinium chloride] | – | – | – | 4 | 4 | 4.5 |
| 16000 | 800 | – | – | CCCCCCCCCCCCCCCCCCNC(=O)OCC1(COC(=O)NCc2cccc[n+]2CC)CCCO1 (stereo not shown) [Example 2, 2-[[[Tetrahydro-2-[[[[(octadecyl)amino]carbonyl]oxy]methyl]furan-2-yl]methoxycarbonyl]aminomethyl]-1-ethylpyridinium chloride] | – | – | – | – | – | – |
